# Data taken from PMC11205194 (Marine Drugs, 2024).
# Tested on: SARS-CoV-2 3CLpro
# Conditions: pH 7; for Inhibition of free 3CL protease by synthesized peptides: SD
Molecule,Inhibition of free 3CL protease by synthesized peptides [%],Inhibition of the 3CLpro control's enzymatic activity [%]
EVLEFFKYLE [PEP 7],7.6 ± 1.3,–
"VVGVVVY [PEP 1, Val-Val-Gly-Val-Val-Val-Tyr]",9.3 ± 5.7,–
"COc1cccc2[nH]c(C(=O)N[C@@H](CC(C)C)C(=O)N[C@@H](C[C@@H]3CCNC3=O)C(=O)CO)cc12 [PF-00835231, reference compound]",–,94.9
EVLEFFKYIE [PEP 5],0.01 ± 3.8,–
